Values of other authors as cited in US20030149013A1, “Methods of treating bacterial infections in dogs and cats” (priority 2001, published 2003).
Read-outs that look alike come from different tables or passages of the source.

What was measured:
[1] = dog

Row | Rat t1/2 (IM (intramuscular)) | Canine t1/2 ([1]; IM (intramuscular)) | Structure (SMILES) | Rat t1/2 (PO (per os)) | Canine t1/2 ([1]; PO (per os))
1 | 0.5 (IM) h | 0.97 (IM) h | O=C(Cc1cccs1)N[C@@H]1C(=O)N2C(C(=O)[O-])=C(C[n+]3ccccc3)CS[C@H]12 [Cephalordine] | – | –
2 | – | – | CC1=C(C(=O)O)N2C(=O)[C@@H](NC(=O)[C@H](N)C3=CCC=CC3)[C@H]2SC1 [Cephadrine] | 0.82 (PO) h | 3.64 (P0) h
